In article PMC12524408 (International Journal of Molecular Sciences, 2025):
No end group written: not given here.

Key:
DSS-induced colitis = details: cited from earlier work; for Therapeutic effect in colitis: 25 nmol/kg subcutaneously, previous studies
Procedure: Nevertheless, the 25 nmol/kg dose was selected for further evaluation (Figure 5). […] The in vivo pharmacological studies were conducted by a contract research organization (CRO), LSI Medience Ltd. (Kumamoto, Japan), and were not in an academic setting. Although the studies were conducted professionally, a blinded evaluation was not implemented, which may have introduced bias. Additionally, histological analysis of the colonic tissue was not performed. […] Future pharmacologi ...

[1] = Stability (degradation) in human serum; type: in vitro ADME; details: pooled human serum, 100 μL in 200 μL (10 mM NaH2PO4 pH 7.1, 100 mM NaCl), 37 °C, 60 min; fluorescence immunoassay; mean, n = 3; read-out: % remaining in human serum after 60 min
Text: Error bars are shorter than the symbol size.

Compound | Therapeutic effect in colitis (DSS-induced colitis) | Histological analysis of colonic tissue (DSS-induced colitis; previous study) | remaining at 1 h [1] [%]
20 kDa PEGylated AM ({PEG 20 kDa}-YRQSMNNFQGLRSFGCRFGTCTVQKLAHQIYQFTDKDKDNVAPRSKISPQGY; ends and bridges not checked; UniProt P35318 95-146, looked up) [20 k PEG-AM] | significant therapeutic effects | histological improvements were observed, but were not statistically significant | 
60 kDa PEGylated AM ({PEG 60 kDa}-YRQSMNNFQGLRSFGCRFGTCTVQKLAHQIYQFTDKDKDNVAPRSKISPQGY; ends and bridges not checked; UniProt P35318 95-146, looked up) [60 k PEG-AM] | significant therapeutic effects |  | 
CC[C@H](C)[C@H](NC(=O)[C@H](CCC(N)=O)NC(=O)[C@H](Cc1c[nH]cn1)NC(=O)[C@H](C)NC(=O)[C@H](CC(C)C)NC(=O)[C@H](CCCCN)NC(=O)[C@H](CCC(N)=O)NC(=O)[C@@H](NC(=O)[C@@H](NC(=O)[C@@H]1CSSC[C@H](NC(=O)CNC(=O)[C@H](Cc2ccccc2)NC(=O)[C@H](CO)NC(=O)[C@H](CCCNC(=N)N)NC(=O)[C@H](CC(C)C)NC(=O)CNC(=O)[C@H](CCC(N)=O)NC(=O)[C@H](Cc2ccccc2)NC(=O)[C@H](CC(N)=O)NC(=O)[C@H](CC(N)=O)NC(=O)[C@H](CCSC)NC(=O)[C@H](CO)NC(=O)[C@H](CCC(N)=O)NC(=O)[C@H](CCCNC(=N)N)NC(=O)[C@@H](N)Cc2ccc(O)cc2)C(=O)N[C@@H](CCCNC(=N)N)C(=O)N[C@@H](Cc2ccccc2)C(=O)NCC(=O)N[C@@H]([C@@H](C)O)C(=O)N1)[C@@H](C)O)C(C)C)C(=O)N[C@@H](Cc1ccc(O)cc1)C(=O)N[C@@H](CCC(N)=O)C(=O)N[C@@H](Cc1ccccc1)C(=O)N[C@H](C(=O)N[C@@H](CC(=O)O)C(=O)N[C@@H](CCCCN)C(=O)N[C@@H](CC(=O)O)C(=O)N[C@@H](CCCCN)C(=O)N[C@@H](CC(=O)O)C(=O)N[C@@H](CC(N)=O)C(=O)N[C@H](C(=O)N[C@@H](C)C(=O)N1CCC[C@H]1C(=O)N[C@@H](CCCNC(=N)N)C(=O)N[C@@H](CO)C(=O)N[C@@H](CCCCN)C(=O)N[C@H](C(=O)N[C@@H](CO)C(=O)N1CCC[C@H]1C(=O)N[C@@H](CCC(N)=O)C(=O)NCC(=O)N[C@@H](Cc1ccc(O)cc1)C(N)=O)[C@@H](C)CC)C(C)C)[C@@H](C)O [AM, Adrenomedullin] |  |  | 9.45
